Data on 4 molecules can be found in patent publication US20230250127A1, “MODIFIED mRNA 5'-CAP ANALOGS” (Nanjing GeneLeap Biotechnology Co., Ltd., priority 2021, published 2023).

“Also recorded” adds a separate entry of the source.

Test [1] deals with C57BL/6 mice. Put plainly: In vivo Fluc expression of capped mRNA-LNPs by in vivo imaging system (IVIS). The settings on record: for expression levels of Fluc protein in liver and muscle (injection site) tissues: Experiment 2, by in vivo imaging system and by ex vivo Luciferase assay, vs Cleancap AG (FIG. 13); for in vivo expression levels of Fluc protein (in vivo imaging system): vs Cleancap AG-mRNA; for Fluc expression in vivo, summary of FIGS. 10-13: mice, intramuscular mRNA-LNPs, compared to Cleancap AG. Here is the method: (§1) Female C57BL/6 mice 7-8 weeks of age were randomly allocated to experimental groups, 30 mice per group. For each group, 6 experimental conditions were set up: 2 mRNA doses (0.01, 0.1 mg/kg) and 3 time points 6 h, 24 h, 48 h (5 mice/dose/time point). A single intramuscular injection of mRNA-loaded LNPs was performed (injection volume 40 µl). At 6 h, 24 h and 48 h post-injection, 5 animals/dose in each group were taken for in vivo tissue and organ imaging. The animals were shaved and intraperitoneally injected with 200 µL of a d-luciferin solution (15 mg/mL in DPBS) D-luciferin and anesthetized 8 min later using isoflurane (5% induction, 2% maintenance in pure oxygen). The emitted light was measured by in vivo imaging system (IVIS) exactly 12 min after d-luciferin injection. Whole body supine and lateral position imaging was carried out.
(§2) After Whole body imaging, the animals were euthanized, and the leg muscles (injection site) were harvested in Experiment 1; muscles and livers were harvested in Experiment 2. The emitted light by the tissues/organs was measured by IVIS in less than 25 min after d-luciferin injection.

For test [2], the system named is C57BL/6 mice. Put plainly: Ex vivo Luciferase assay of tissue homogenates after mRNA-LNP injection. The test is classed as in vivo. The settings on record: Experiment 1, low and high dose regimens, different time points; vs Cleancap AG-mRNA. Here is the method: as §1, §2
Next, tissue lysates were prepared by homogenization and Glo Lysis Buffer 1X (Abcam cat # ab6789) treatment. The lysates were centrifuged at 4° C. for 15 min at 10000 g, and the supernatants were used for total protein quantification and luciferase activity assessment. […]

In a further test the test system is HeLa cells. In words: Fluc mRNA carrying 5′-cap analogs, translation in HeLa cells (luciferase luminescence). Conditions: for Fluc expression in vitro, summary of FIGS. 7-9: HeLa cells, compared to the control Cleancap AG; for expression levels of Fluc protein by mRNAs containing different 5′caps: HeLa. The test is classed as cell-based. Here is the method:
The novel 5′ -caps synthesized were incorporated into Firefly luciferase (Fluc) mRNA using pGL-T7-AG-nUTR002-Fluc-HBB3UTR-30+70A-BpiI (Kana-AGG-BpiI Plasmid Size: 4856bp). Then, the dose responses of the new cap analogs were compared to commercially available Cap analog from Trilink m7G(5′)ppp(5′)(2′OMeA)pG (cat no. N-7113).
Briefly, 1 µg GLuc (AGG plasmid) template per reaction was transcribed in vitro using a High Yield T7 mRNA synthesis kit (NEB, E2040S). Cap analogs were added by co-transcription. Transcription was carried out for 2 hours, followed by DNase I treatment for 15 min. Ratio of NTP to Cap analogs, 10:4 (10 mM NTP each, 4 mM cap).
Expected mRNA length: 2008 nt. Then the small scale IVT mRNAs were purified using DNA Selection Magnetic beads (Yeasen,12601ES56), Large scale IVT mRNAs were purified using POROS™ Oligo (dT)25 (Thermofisher, A47383) and Ultrafiltration use Amicon® Ultra-15(Merk, UFC910024), the RNA was quantitated using Nanodrop, and 500 ng of each mRNA was run on agarose E-Gel, mRNAs were run on a 2100 bioanalyzer or CE (PA800) for checking mRNA integrity, HPLC for Purity, DNAzyme-PAGE for Capping efficiency and polyA quality. Large scale mRNA were subjected to more QC (Capping/polyA tail-LC-MS, Template DNA residual-qPCR, dsRNA-Elisa, pH).
Novel 5 ′-cap structures that were synthesized were incorporated into Firefly luciferase (Fluc) mRNA via IVT as described above and then assessed for translation efficacy in HeLa cells following transfection. Briefly, HeLa cells were seeded in a 96-well plate (20000cells/0.1 ml/well). The next day (approx. ∼80-90% confluent), the cells were transfected with 25, 50, or 100 ng/well of Fluc-mRNA samples using 2 µl/ml of Lipofectamine MessengerMax (Thermo Scientific, cat#LMRNA015) or in-house formulated lipid-nanoparticles (LNPs). The cells were incubated for another 24 h. To monitor the functional (translation) activity of Fluc mRNAs into which different 5′cap analogs have been incorporated, the Fluc protein expression was evaluated by adding 60 µl Bio Lite Luciferase Assay System (Vazyme, cat # DD1201-02) into each well, incubating the plates at room temperature for 10 min, and measuring the luminescence using a multimode plate reader luminometer. All wells were assayed in triplicates. Statistical analysis was performed using two-way ANOVA followed by uncorrected Fisher’s LSD.

The test system of the next test is C3 tumors. Put plainly: C3 Tumor Model, capped HPV E6/E7 mRNA. Conditions: GL2288 mRNA, mid dose (0.05 mg/Kg), intramuscular Day 0; vs CC. The test is classed as in vivo. Here is the method: As soon as the C3 tumors reached 100 mm^3, our HPV E6/E7 mRNA sequence (GL2281) (wherein the sequence encoding HPV E6-E7 is SEQ ID NO:2), capped with either CleanCap, GL-Cap5 or GL-Cap1, was administered intramuscularly at 10 µg per dose, with the first dose on Day 0 and second dose on Day 10. The PBS and 10 µg of CleanCap-capped Luciferase mRNA (FF luciferase) were used for comparison.
As soon as the C3 tumors reached 100 mm3, our HPV E6/E7 mRNA sequence (GL2288) (wherein the sequence encoding HPV E6-E7 is SEQ ID NO:1), capped with either CleanCap (CC), or GL-Cap7, was administered intramuscularly at different doses at Day 0. The CleanCap-capped Luciferase mRNA (FF Luciferase) was used for comparison.

Where [3] appears, read: Experiment 2, single intramuscular dose 0.1 mg/kg, 6 h after injection.

On to `C[n+]1cn([C@@H]2O[C@H](COP(=O)([O-])OP(=O)(O)OP(=O)(O)OC[C@]34COC(C3OP(=O)(O)OC[C@]35COC(C3OP(=O)(O)OC[C@H]3O[C@@H](n6cnc7c(=O)[nH]c(N)nc76)C(O)C3O)[C@H](n3cnc6c(N)ncnc63)O5)[C@H](n3cnc5c(N)ncnc53)O4)C(O)C2O)c2nc(N)[nH]c(=O)c21` (some centres unmarked) [GL-Cap1, 7mGppp(locked)Ap(locked)ApG], for which, in the test on C57BL/6 mice [1], the “expression levels of Fluc protein in liver and muscle (injection site) tissues” value (shortened to “expression levels … (injection site) tissues”) is “better”. In addition, the “in vivo expression levels of Fluc protein (in vivo imaging system)” value (shortened to “in vivo expression levels”) with C57BL/6 mice [1] (setting [3]) was “slightly higher than in the Cleancap AG group, but without statistical significance”.
`C[n+]1cn([C@@H]2O[C@H](COP(=O)([O-])OP(=O)(O)OP(=O)(O)OC[C@]34COC(C3OP(=O)(O)OC[C@H]3O[C@@H](n5cnc6c(=O)[nH]c(N)nc65)C(O)C3O)[C@H](n3cnc5c(N)ncnc53)O4)C(O)C2O)c2nc(N)[nH]c(=O)c21` (some centres unmarked) [GL-Cap5, 7mGppp(locked)ApG]: the “expression levels of Fluc protein in muscle tissue homogenates (ex vivo Luciferase assay)” value in the test on C57BL/6 mice [2] is “higher than with Cleancap AG-mRNA”. The “in vivo expression levels” value in the test on C57BL/6 mice [1] (Experiment 1, single intramuscular dose of mRNA-LNPs, low and high dose regimens, 6 h, 24 h, 48 h) is listed as “significantly higher Fluc expression levels; also recorded: the strongest expression level among the tested caps”; with C57BL/6 mice [1] (setting [3]), “significantly higher Fluc expression levels”. The “expression levels … (injection site) tissues” value in the test with C57BL/6 mice [1] was “comparable”. Also, the “Fluc expression in vivo, summary of FIGS. 10-13” value with C57BL/6 mice [1] is “significantly stronger expression”. The “Fluc expression in vitro, summary of FIGS. 7-9” value with HeLa cells is recorded as “stronger expression”. For the same molecule, the “expression levels of Fluc protein by mRNAs containing different 5′caps” value in the test on HeLa cells (24 h, in-house LNP formulation, high and medium doses (FIG. 7B)) is given as “significantly higher than all the other tested caps”; in the test on HeLa cells (24 h post-transfection, Lipofectamine MessengerMax, different tested doses, vs Cleancap AG (FIG. 7A)) it was “significantly higher expression level at different tested doses”.
Take `C[n+]1cn([C@@H]2O[C@H](COP(=O)([O-])OP(=O)(O)OP(=O)(O)OC[C@]34COC(C3OP(=O)(O)OC[C@H]3O[C@@H](n5cnc6c(=O)[nH]c(N)nc65)C(O)C3O)[C@H](n3cnc5c(N)ncnc53)O4)C(O)C2F)c2nc(N)[nH]c(=O)c21` (some centres unmarked) [GL-Cap7, 7m-2′F-Gppp(locked)ApG]: in the test with C3 tumors, the anti-tumor efficacy result is “higher anti-tumor efficacy than CC”. Moreover, in the test on C57BL/6 mice [1], the “expression levels … (injection site) tissues” value is “better; also recorded: highest expression levels”; the “Fluc expression in vivo, summary of FIGS. 10-13” value is given as “significantly stronger expression”. For the same molecule, the “in vivo expression levels” value in the test with C57BL/6 mice [1] (setting [3]) was “significantly higher Fluc expression levels”. Besides, the “Fluc expression in vitro, summary of FIGS. 7-9” value with HeLa cells is “stronger expression”.
On to `COCCOC1C(O)[C@@H](COP(=O)([O-])OP(=O)(O)OP(=O)(O)OC[C@]23COC(C2OP(=O)(O)OC[C@H]2O[C@@H](n4cnc5c(=O)[nH]c(N)nc54)C(O)C2O)[C@H](n2cnc4c(N)ncnc42)O3)O[C@H]1n1c[n+](C)c2c(=O)[nH]c(N)nc21` (some centres unmarked) [GL-Cap8, 7m-2-′MOE-Gppp(locked)ApG], for which, in the test with C57BL/6 mice [1], the “expression levels … (injection site) tissues” value is “better; also recorded: highest expression levels”. Further, the “expression levels of Fluc protein by mRNAs containing different 5′caps” value in the test with HeLa cells (24 h, in-house LNP formulation, low doses (FIG. 7B)) was “stronger expression than Cleancap AG (Trilink)”.
